According to PubChem BioAssay (NCI):
“And” between values parts separate entries of the source, which are not always exact repeats. Equal entries are not always repeated.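 Tested at 5 concentrations; 48 h exposure; 96-well plates; endpoints linearly interpolated, else capped at highest concentration. TGI is the concentration that stops growth completely.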

Experiments:
Assay in all cases: NCI-60 cell line screen, 48 h
786-0 renal = test system: 786-0 renal
A498 renal = test system: A498 renal
A549 NSCLC = test system: A549 NSCLC
ACHN renal = test system: ACHN renal
BT-549 breast = test system: BT-549 breast
CAKI-1 renal = test system: CAKI-1 renal
CCRF-CEM leukemia = test system: CCRF-CEM leukemia
COLO 205 colon = test system: COLO 205 colon
DU-145 prostate = test system: DU-145 prostate
EKVX NSCLC = test system: EKVX NSCLC
HCC-2998 colon = test system: HCC-2998 colon
HCT-116 colon = test system: HCT-116 colon
HCT-15 colon = test system: HCT-15 colon
HL-60(TB) leukemia = test system: HL-60(TB) leukemia
HOP-62 NSCLC = test system: HOP-62 NSCLC
HOP-92 NSCLC = test system: HOP-92 NSCLC
HS 578T breast = test system: HS 578T breast
HT29 colon = test system: HT29 colon
IGROV1 ovarian = test system: IGROV1 ovarian
K-562 leukemia = test system: K-562 leukemia
KM12 colon = test system: KM12 colon
LOX IMVI melanoma = test system: LOX IMVI melanoma
M14 melanoma = test system: M14 melanoma
MALME-3M melanoma = test system: MALME-3M melanoma
MCF7 breast = test system: MCF7 breast
MDA-MB-231 breast = test system: MDA-MB-231 breast
MDA-MB-435 = test system: MDA-MB-435
MDA-N = test system: MDA-N
MOLT-4 leukemia = test system: MOLT-4 leukemia
NCI-H226 lung = test system: NCI-H226 lung
NCI-H23 lung = test system: NCI-H23 lung
NCI-H460 lung = test system: NCI-H460 lung
NCI-H522 lung = test system: NCI-H522 lung
NCI/ADR-RES ovarian = test system: NCI/ADR-RES ovarian
OVCAR-3 ovarian = test system: OVCAR-3 ovarian
OVCAR-4 ovarian = test system: OVCAR-4 ovarian
OVCAR-5 ovarian = test system: OVCAR-5 ovarian
OVCAR-8 ovarian = test system: OVCAR-8 ovarian
PC-3 prostate = test system: PC-3 prostate
RPMI-8226 leukemia = test system: RPMI-8226 leukemia
RXF 393 renal = test system: RXF 393 renal
SF-268 CNS = test system: SF-268 CNS
SF-295 CNS = test system: SF-295 CNS
SF-539 CNS = test system: SF-539 CNS
SK-MEL-2 melanoma = test system: SK-MEL-2 melanoma
SK-MEL-28 melanoma = test system: SK-MEL-28 melanoma
SK-MEL-5 melanoma = test system: SK-MEL-5 melanoma
SK-OV-3 ovarian = test system: SK-OV-3 ovarian
SN12C renal = test system: SN12C renal
SNB-19 CNS = test system: SNB-19 CNS
SNB-75 CNS = test system: SNB-75 CNS
SW-620 colon = test system: SW-620 colon
T-47D breast = test system: T-47D breast
TK-10 renal = test system: TK-10 renal
U251 CNS = test system: U251 CNS
UACC-257 melanoma = test system: UACC-257 melanoma
UACC-62 melanoma = test system: UACC-62 melanoma
UO-31 renal = test system: UO-31 renal

Measured: TGI

Cc1ccc(N=Nc2c(O)ccc3cc(S(=O)(=O)O)ccc23)cc1
> 100 µM and 25.2 µM: 786-0 renal
> 100 µM and 80.8 µM: CAKI-1 renal
> 100 µM and 45.7 µM: MDA-MB-231 breast
> 100 µM and 38.2 µM: LOX IMVI melanoma
> 100 µM: all other assays above

CN1CCc2c(sc3ncn(Nc4ccc(Cl)cc4)c(=N)c23)C1
not listed: HCC-2998 colon | UO-31 renal
> 100 µM: all other assays above

N#Cc1cc(Sc2ccc(N)c(C#N)c2)ccc1N
38.9 µM: HCT-15 colon
24.2 µM: MDA-N
81 µM: NCI-H226 lung
23.7 µM: COLO 205 colon
39 µM: SK-MEL-5 melanoma
27.9 µM: SF-539 CNS
36.4 µM: MALME-3M melanoma
98.8 µM: OVCAR-4 ovarian
59.2 µM: RPMI-8226 leukemia
34.4 µM: HCT-116 colon
41.3 µM: CCRF-CEM leukemia
35.3 µM: NCI/ADR-RES ovarian
89.6 µM: DU-145 prostate
6.49 µM: HL-60(TB) leukemia
43.3 µM: 786-0 renal
47.8 µM: M14 melanoma
59 µM: SF-268 CNS
39.3 µM: HS 578T breast
31.1 µM: NCI-H460 lung
51.7 µM: LOX IMVI melanoma
12.6 µM: MDA-MB-435
60.2 µM: K-562 leukemia
50.5 µM: EKVX NSCLC
30.9 µM: HT29 colon
55.2 µM: OVCAR-8 ovarian
24.9 µM: KM12 colon
not listed: CAKI-1 renal | HCC-2998 colon | NCI-H23 lung | NCI-H522 lung | SNB-75 CNS
> 100 µM: all other assays above

COC(=O)c1c(C)cccc1C1CN=NC12Cc1cc(C)cc(C)c1C2=O (centres undefined)
74.9 µM: A498 renal
64.2 µM: HOP-92 NSCLC
41.2 µM: NCI-H522 lung
78.4 µM: NCI-H23 lung
44.6 µM: SK-MEL-5 melanoma
98.2 µM: MDA-MB-231 breast
63.8 µM: CCRF-CEM leukemia
99.3 µM: SNB-75 CNS
98.3 µM: TK-10 renal
80.3 µM: UACC-257 melanoma
41.5 µM: LOX IMVI melanoma
68 µM: HCC-2998 colon
29.1 µM: MCF7 breast
31.9 µM: COLO 205 colon
44.2 µM: HL-60(TB) leukemia
not listed: RPMI-8226 leukemia
> 100 µM: all other assays above
